According to PubChem BioAssay (NCI):
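Growth conditions: 96-well plates. Treatment: test compound, 48 hours, 5 concentrations. Analysis: linear interpolation between bracketing concentrations; unreached endpoints set to highest concentration. Definition used: TGI = concentration required for complete inhibition of growth.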

What was measured:
Experiment in all cases: growth of human tumour cells (NCI), 48 h
HT29 colon = test system: HT29 colon
ACHN renal = test system: ACHN renal
NCI-H522 lung = test system: NCI-H522 lung
HL-60(TB) leukemia = test system: HL-60(TB) leukemia
DLD-1 colon = test system: DLD-1 colon
SF-268 CNS = test system: SF-268 CNS
NCI-H460 lung = test system: NCI-H460 lung
NCI-H23 lung = test system: NCI-H23 lung
HS 578T breast = test system: HS 578T breast
MALME-3M melanoma = test system: MALME-3M melanoma
NCI/ADR-RES ovarian = test system: NCI/ADR-RES ovarian
HOP-92 NSCLC = test system: HOP-92 NSCLC
OVCAR-8 ovarian = test system: OVCAR-8 ovarian
HCT-15 colon = test system: HCT-15 colon
RXF-631 renal = test system: RXF-631 renal
IGROV1 ovarian = test system: IGROV1 ovarian
U251 CNS = test system: U251 CNS
M19-MEL melanoma = test system: M19-MEL melanoma
CAKI-1 renal = test system: CAKI-1 renal
SN12C renal = test system: SN12C renal
DU-145 prostate = test system: DU-145 prostate
HOP-18 NSCLC = test system: HOP-18 NSCLC
SK-MEL-2 melanoma = test system: SK-MEL-2 melanoma
LXFL 529 NSCLC = test system: LXFL 529 NSCLC
KM20L2 colon = test system: KM20L2 colon
K-562 leukemia = test system: K-562 leukemia
SR leukemia = test system: SR leukemia
MDA-N = test system: MDA-N
SK-MEL-28 melanoma = test system: SK-MEL-28 melanoma
TK-10 renal = test system: TK-10 renal
SNB-75 CNS = test system: SNB-75 CNS
BT-549 breast = test system: BT-549 breast
SW-620 colon = test system: SW-620 colon
CCRF-CEM leukemia = test system: CCRF-CEM leukemia
KM12 colon = test system: KM12 colon
COLO 205 colon = test system: COLO 205 colon
UACC-257 melanoma = test system: UACC-257 melanoma
MDA-MB-231 breast = test system: MDA-MB-231 breast
786-0 renal = test system: 786-0 renal
M14 melanoma = test system: M14 melanoma
HOP-62 NSCLC = test system: HOP-62 NSCLC
SK-OV-3 ovarian = test system: SK-OV-3 ovarian
MDA-MB-435 = test system: MDA-MB-435
HCC-2998 colon = test system: HCC-2998 colon
OVCAR-4 ovarian = test system: OVCAR-4 ovarian
LOX IMVI melanoma = test system: LOX IMVI melanoma
XF 498 CNS = test system: XF 498 CNS
SF-539 CNS = test system: SF-539 CNS
A498 renal = test system: A498 renal
MOLT-4 leukemia = test system: MOLT-4 leukemia
UO-31 renal = test system: UO-31 renal
HCT-116 colon = test system: HCT-116 colon
SF-295 CNS = test system: SF-295 CNS
SK-MEL-5 melanoma = test system: SK-MEL-5 melanoma
SNB-19 CNS = test system: SNB-19 CNS
NCI-H226 lung = test system: NCI-H226 lung
OVCAR-5 ovarian = test system: OVCAR-5 ovarian
UACC-62 melanoma = test system: UACC-62 melanoma
EKVX NSCLC = test system: EKVX NSCLC
RPMI-8226 leukemia = test system: RPMI-8226 leukemia
PC-3 prostate = test system: PC-3 prostate
OVCAR-3 ovarian = test system: OVCAR-3 ovarian
MCF7 breast = test system: MCF7 breast
A549 NSCLC = test system: A549 NSCLC
RXF 393 renal = test system: RXF 393 renal

N#CCC(=O)N/N=C(\CCN1CCCC1)CC(c1ccccc1)c1c(O)c2ccccc2oc1=O (stereo not given)
TGI (HT29 colon): > 100 µM
TGI (ACHN renal): > 100 µM
TGI (NCI-H522 lung): > 100 µM
TGI (HL-60(TB) leukemia): 59.6 µM
TGI (DLD-1 colon): > 100 µM
TGI (SF-268 CNS): > 100 µM
TGI (NCI-H460 lung): > 100 µM
TGI (NCI-H23 lung): > 100 µM
TGI (HS 578T breast): > 100 µM
TGI (MALME-3M melanoma): > 100 µM
TGI (NCI/ADR-RES ovarian): > 100 µM
TGI (HOP-92 NSCLC): > 100 µM
TGI (OVCAR-8 ovarian): > 100 µM
TGI (HCT-15 colon): > 100 µM
TGI (RXF-631 renal): > 100 µM
TGI (IGROV1 ovarian): > 100 µM
TGI (U251 CNS): > 100 µM
TGI (M19-MEL melanoma): > 100 µM
TGI (CAKI-1 renal): > 100 µM
TGI (SN12C renal): > 100 µM
TGI (DU-145 prostate): > 100 µM
TGI (HOP-18 NSCLC): > 100 µM
TGI (SK-MEL-2 melanoma): > 100 µM
TGI (LXFL 529 NSCLC): > 100 µM
TGI (KM20L2 colon): > 100 µM
TGI (K-562 leukemia): > 100 µM
TGI (SR leukemia): 69.8 µM
TGI (MDA-N): > 100 µM
TGI (SK-MEL-28 melanoma): > 100 µM
TGI (TK-10 renal): > 100 µM
TGI (SNB-75 CNS): > 100 µM
TGI (BT-549 breast): > 100 µM
TGI (SW-620 colon): > 100 µM
TGI (CCRF-CEM leukemia): > 94.8 µM
TGI (KM12 colon): > 100 µM
TGI (COLO 205 colon): > 56.8 µM
TGI (UACC-257 melanoma): > 100 µM
TGI (MDA-MB-231 breast): > 100 µM
TGI (786-0 renal): > 100 µM
TGI (M14 melanoma): > 100 µM
TGI (HOP-62 NSCLC): > 100 µM
TGI (SK-OV-3 ovarian): > 100 µM
TGI (MDA-MB-435): > 100 µM
TGI (HCC-2998 colon): > 100 µM
TGI (OVCAR-4 ovarian): > 100 µM
TGI (LOX IMVI melanoma): > 64.7 µM
TGI (XF 498 CNS): > 100 µM
TGI (SF-539 CNS): > 100 µM
TGI (A498 renal): > 85.5 µM
TGI (MOLT-4 leukemia): 61.5 µM
TGI (UO-31 renal): > 100 µM
TGI (HCT-116 colon): > 100 µM
TGI (SF-295 CNS): > 100 µM
TGI (SK-MEL-5 melanoma): > 100 µM
TGI (SNB-19 CNS): > 100 µM
TGI (NCI-H226 lung): > 100 µM
TGI (OVCAR-5 ovarian): > 100 µM
TGI (UACC-62 melanoma): > 100 µM
TGI (EKVX NSCLC): > 100 µM
TGI (RPMI-8226 leukemia): > 92.8 µM
TGI (PC-3 prostate): > 100 µM
TGI (OVCAR-3 ovarian): > 100 µM
TGI (MCF7 breast): 45.9 µM
TGI (A549 NSCLC): > 100 µM
TGI (RXF 393 renal): > 100 µM
